From patent US20160128988A1, “COMBINATIONS FOR THE TREATMENT OF CANCER COMPRISING A MPS-1 KINASE INHIBITOR AND A MITOTIC INHIBITOR” (BAYER PHARMA AKTIENGESELLSCHAFT, priority 2013, published 2016)
Read-outs that look alike come from different tables or passages of the source. Marks after values point to notes of the source that are not given here.

How the values were obtained:
[1] = Maximum tolerated dose (MTD); type: in vivo, nude mice
[2] = test system: NCI-H1299 human NSCLC xenograft tumors; details: Compound A1 2 mg/kg 2QD 2on/5off p.o., docetaxel 15 mg/kg QD 1on/6off i.v.; for T/C area: relative mean tumor area, 20 treatment days
Description: The effect of combination treatment of an Mps-1 kinase inhibitor (Compound A1) with docetaxel, another SAC activating, […], anti-mitotic agent, used as standard of care in NSCLC patients, was studied in the NCI-H1299 taxane intrinsically resistant human lung carcinoma (NSCLC) xenograft model in nude mice.
Docetaxel was applied intravenously once per week upon its respective MTD. Substances were formulated in optimal vehicles to achieve solutions. Animal body weight and tumor size were determined two times weekly. […] For combination treatment Compound A1and docetaxel were applied at the same day within a time frame of 4 hours. Animals of control and Mps-1 kinase inhibitor monotherapy group were treated for a duration of 20 days. Animals of docetaxel monotherapy and docetaxel/Mps-1 kinase inhibitor combination treatment groups were treated for a duration of 42 days. At the end of the study after one final treatment plasma and tumors were sampled for PK analysis and final tumor weight was determined.
(§1) NCI-H1299 human NSCLC tumor cells were implanted s.c. into nude mice on day 0. […] Compound A1 was administered orally (p.o.) upon 2.0 mg/kg twice daily (2QD) for 2 days on/5 days off (2 on/5 off) in monotherapy and in combination with docetaxel. Docetaxel was administered intravenously (i.v.) upon 15 mg/kg once daily (QD) once per week (1 on/6 off) in monotherapy and combination therapy. Tumor growth was monitored by determination of the tumor area using calliper measurement two to three times weekly. FIG. 2A: Time course of tumor growth. FIG. 2B: Weight of tumors in docetaxel/Mps-1 kinase inhibitor combination group at the end of the study at day 52 after tumor cell inoculation. FIG. 2C: Time course of animal body weight change during the course of the study.

[3] = test system: MKN1 human gastric carcinoma model; test: Combination with paclitaxel in MKN1 human gastric carcinoma model
Description: (§3) Compound A1 was administered PO in the 2QD intermittent (2 days on/5 days off) dosing schedule up to the respective MTD in single-agent treatment and at a dose of 40% of the single-agent MTD in combination. Paclitaxel was administered IV QW at its respective MTD. Treatment for all groups started at a tumor size of 27 mm^2, on day 7 after tumor cell inoculation. For combination treatment, Compound A1 and paclitaxel were administered on the same day within a time of 4 hours. Animals of the control and Compound A1 single-agent treatment groups were treated for 40 days. Animals of the paclitaxel single-agent and Compound A1 with paclitaxel combination treatment groups were treated for 78 days.

[4] = test system: cisplatin-resistant ovarian cancer cells A2780cis; test: Mode of action: histopathology of A2780cis tumors after treatment
Description: To explain in vivo the mode of action of an Mps-1 kinase inhibitor in single-agent treatment and combination treatment with a taxane, female NMRI (Naval Medical Research Institute) nude mice were implanted with cisplatin-resistant ovarian cancer cells A2780cis.
Paclitaxel was administered IV (intravenous(ly)) QW (once per week (meaning the 1 day on/6 days off treatment schedule)) at its MTD (24 mg/kg) in single-agent and combination treatments. […] Tumors were embedded in paraffin, sections were prepared and stained with hematoxylin & eosin for histopathological analysis.

[5] = test system: IGR-OV1 human ovarian carcinoma model
Description: Paclitaxel was administered IV QW at 50% of its respective MTD.

[6] = test system: MDA-MB 231 human triple-negative breast cancer xenograft tumors; details: Compound A1 1 mg/kg 2QD 2on/5off p.o., paclitaxel 20 mg/kg QD 1on/6off i.v.; for T/C area: relative mean tumor area, 28 treatment days
Description: The effect of combination treatment of an Mps-1 kinase inhibitor (Compound A1) and paclitaxel was studied in the MDA-MB 231 human triple-negative (no expression of Her2/neu, progesterone receptor, estrogen receptor) xenograft model in nude mice.
(§2) Paclitaxel was applied intravenously once per week upon its respective MTD. Substances were formulated in optimal vehicles to achieve solutions. Animal body weight and tumor size were determined three times weekly. […] For combination treatment, Compound A1 and paclitaxel were applied at the same day within a time frame of 4 hours. Animals of control and monotherapy group (Compound A1 only) were treated for a duration of 28 days. Animals of paclitaxel monotherapy and paclitaxel/Mps-1 kinase inhibitor treatment groups were treated for a duration of 50 days. At the end of the study after one final treatment plasma and tumors were sampled for PK analysis and final tumor weight was determined.
MDA-MB 231 human breast cancer cells were implanted s.c. into nude mice on day 0. […] Compound A1 was administered orally (p.o.) upon 1 mg/kg twice daily (2QD) for 2 days on/5 days off (2 on/5 off) in monotherapy and in combination with paclitaxel. Paclitaxel was administered intravenously (i.v.) upon 20 mg/kg once daily (QD) once per week (1 on/6 off) in monotherapy and combination therapy. Tumor growth was monitored by determination of the tumor area using calliper measurement three times weekly. FIG. 3A: Time course of tumor growth. FIG. 3B: Weight of tumors in paclitaxel/Mps-1 kinase inhibitor combination group at the end of the study at day 73 after tumor cell inoculation. FIG. 3C: Time course of animal body weight change during the course of the study.

[7] = test system: NCI-H1299 human NSCLC xenograft tumors; details: Compound A1 0.45 mg/kg 2QD 2on/5off p.o., paclitaxel 20 mg/kg QD 1on/6off i.v.; for T/C area: relative mean tumor area, 28 treatment days
Description: The effect of combination treatment of an Mps-1 inhibitor and paclitaxel was studied in the NCI-H1299 taxane intrinsically resistant human lung carcinoma (NSCLC) xenograft model in nude mice.
as §2, with “were determined two to three times” for “were determined three times”, “combination treatment, the Compound A1” for “combination treatment, Compound A1”, “and paclitaxel/Mps-1 inhibitor treatment” for “and paclitaxel/Mps-1 kinase inhibitor treatment”, “duration of 37 days. At” for “duration of 50 days. At”
as §1, with “FIGS. 1A and 1B show the response of NCI-H1299 human NSCLC xenograft tumors to treatment with Compound A1 in combination with paclitaxel. NCI-H1299” for “NCI-H1299”, “0.45” for “2.0”, “paclitaxel. Paclitaxel” for “docetaxel. Docetaxel”, “20” for “15”, “1A:” for “2A:”, “1B:” for “2B: Weight of tumors in docetaxel/Mps-1 kinase inhibitor combination group at the end of the study at day 52 after tumor cell inoculation. FIG. 2C:”

[8] = test system: primary human NSCLC xenograft model LU387; test: Combination with paclitaxel in primary human NSCLC xenograft model LU387; type: in vivo, nude mice; details: day 42; paclitaxel 20 mg/kg IV QW for 6 weeks, alone or in combination with Compound A1
Description: The effect of Compound A1 and paclitaxel compared with a vehicle was evaluated in the subcutaneous primary human NSCLC xenograft model LU387 on nude mice.

A2780cis xenograft model = test system: A2780cis xenograft model
Description: The effect of the combination treatment of Compound A1 with paclitaxel was studied in a human ovarian carcinoma model in nude mice, namely in the adaptive cisplatin-resistant and paclitaxel intrinsically-resistant A2780cis xenograft model. […] Paclitaxel was administered IV QW at its respective MTD.

[9] = test system: MKN1 human gastric carcinoma model; details: mouse, in vivo
Description: as §3

[10] = test system: human glioblastoma model U87 MG; test: Combination with vincristine in human glioblastoma model U87 MG (intracerebral); type: in vivo, nude mice
Description: The study was designed to determine the response of this glioblastoma model to the treatment with the investigational Compound A1 and vincristine, both alone at a fixed dose, and vincristine in combination with two different doses, both lower than that of Compound A1 used in the monotherapy schedule. The size of the glioblastoma was used as read out parameter for response.
The cell culture derived human xenograft U87 MG was initiated by transplantation of the tumor cells into the left hemisphere of the mouse brain. Treatment was done in three cycles between day 3 and day 19. Mice were sacrificed at day 24, the brain isolated and shock frozen in 2 methyl-butane. Tumor size were determined as measure for tumor growth inhibition from cryo-slizes after staining.

[11] = after 78 treatment days, paclitaxel 24 mg/kg IV QW
[12] = day 24, single agents: Gr. B Compound A1 2.5 mg/kg p.o., Gr. C Vincristine 0.75 mg/kg i.p.

For `CC(=O)O[C@@]12CO[C@@H]1C[C@H](O)[C@@]1(C)C(=O)[C@H](O)C3=C(C)[C@@H](OC(=O)[C@H](O)[C@@H](NC(=O)OC(C)(C)C)c4ccccc4)C[C@@](O)([C@@H](OC(=O)c4ccccc4)[C@H]21)C3(C)C` [Docetaxel, 1,7β,10β-trihydroxy-9-oxo-5β,20-epoxytax-11-ene-2α,4,13α-triyl 4-acetate 2-benzoate 13-{(2R,3S)-3-[(tert-butoxycarbonyl)amino]-2-hydroxy-3-phenylpropanoate}, reference compound], the MTD ([1]; nude, mouse, in vivo, Compound A1 PO 2QD 2 days on/5 days off, paclitaxel IV QW, docetaxel i.v. 1 day on/6 days off, read-out: MTD (maximum tolerated dose), single-agent) was 15 mg/kg, the “Fatal Tox” value [2] was 0/8 and the “Max. Body weight loss (%)” value [2] was −2%. The T/C area [2] was 0.16^# and the T/C area ([2]; listed as docetaxel) was 0.16.
With `CC(=O)O[C@H]1C(=O)[C@@]2(C)[C@H]([C@H](OC(=O)c3ccccc3)[C@]3(O)C[C@H](OC(=O)[C@H](O)[C@@H](NC(=O)c4ccccc4)c4ccccc4)C(C)=C1C3(C)C)[C@]1(OC(C)=O)CO[C@@H]1C[C@@H]2O` [Paclitaxel, (2α,4α,5β,7β,10β,13α)-4,10-bis(acetyloxy)-13-{[(2R, 3S)-3-(benzoylamino)-2-hydroxy-3-phenylpropanoyl]oxy}-1,7-dihydroxy-9-oxo-5,20-epoxytax-11-en-2-yl benzoate, reference compound] the “relative T/Carea” value ([3]; 40 treatment days, paclitaxel 24 mg/kg IV QW, combination with Compound A1 1 mg/kg PO 2QD 2 days on/5 days off) was 0.05, the “partial regression (% of tumors)” value [3, 11] was 20% and the “tumor growth delay (% of tumors)” value [3, 11] was 80%. For the same molecule, the “anti-tumor efficacy (in words)” value ([3]; mouse, in vivo) was “overall disease stabilization”, the “Fatal toxicity (number of animals)” value ([3]; paclitaxel group: Treatment Day 57, combination group: after the first treatment cycle) was 1 and the “histopathological phenotype of tumor tissue” value ([4]; paclitaxel 24 mg/kg IV QW single agent, 4 and 8 hours after treatment) was “induced atypical mitoses”. The “histopathological phenotype of tumor tissue” value ([4]; paclitaxel 24 mg/kg IV QW single agent, 28, 32 and 48 hours after treatment) was “increased necrosis and apoptosis”, the “MTD (maximum tolerated dose), single-agent” value ([1]; paclitaxel i.v. 1 day on/6 days off, as stated for the NCI-H1299 study) was 20 mg/kg and the “relative T/Carea” value ([5]; 38 treatment days, Compound A1 single agent 2.5 mg/kg PO 2QD, paclitaxel 12 mg/kg IV QW, combination with Compound A1 2 mg/kg PO 2QD) was 0.34. The “anti-tumor efficacy (in words)” value ([5]; Compound A1 2.5 mg/kg single agent (38 days), paclitaxel 12 mg/kg and combination with Compound A1 2 mg/kg (treatment day 38 to 59)) was “clear tumor progression”, the “tolerability (in words)” value ([5]; mouse, in vivo) was “well tolerated without critical body weight loss or toxicities” and the “Fatal Tox” value [6] was 0/10. The T/C area [6] was 0.14^#, the T/C area ([6]; listed as paclitaxel) was 0.14 and the “Fatal Tox” value [7] was 0/10. For the same molecule, the T/C area [7] was 0.28^#, the T/C area ([7]; listed as paclitaxel) was 0.28 and the mean tumor size [8] was 1494 mm^3. For the same molecule, the “relative T/Carea” value (A2780cis xenograft model; 14 treatment days, Compound A1 1 mg/kg PO 2QD 2 days on/5 days off, paclitaxel 24 mg/kg IV QW) was 0.09, the “tolerability (in words)” value (A2780cis xenograft model; mouse, in vivo) was “well tolerated without critical body weight loss or toxicities” and the “tolerability (in words)” value [9] was “overall well tolerated without critical body weight loss”.
In the case of `CC[C@]1(O)C[C@H]2CN(CCc3c([nH]c4ccccc34)[C@@](C(=O)OC)(c3cc4c(cc3OC)N(C=O)[C@H]3[C@@](O)(C(=O)OC)[C@H](OC(C)=O)[C@]5(CC)C=CCN6CC[C@]43[C@@H]65)C2)C1` [Vincristine, vincristine, reference compound], the “inhibition of tumor growth” value ([10]; Gr. C vincristine alone, Gr. D combination of high dose Compound A1 and vincristine) is reported as 38.6%, the “Brain tumor inside [mm^2]” value ([10]; day 24, single agents: Gr. B Compound A1 2.5 mg/kg p.o. BIDx2x3, Gr. C Vincristine 0.75 mg/kg i.p. 1xqWx3) is reported as 10.69 +/− 6.71 mm^2 and the “Brain tumor outside [mm^2]” value [10, 12] is reported as 4.50 +/− 1.66 mm^2. For the same molecule, the “Brain tumor total [mm^2]” value [10, 12] was 13.26 +/− 7.25 mm^2 and the “T/C (inside T) [%]” value [10, 12] was 61.4%.
